Source: US20260365670A1, “EGFR INHIBITORS AND USES THEREOF” (DIZAL (JIANGSU) PHARMACEUTICAL CO., LTD., priority 2022, published 2026)
Read-outs that look alike come from different tables or passages of the source.

Legend:
EGFR[T790M/C797S/L858R] = target: T1, EGFR[T790M/C797S/L858R] (Homo sapiens, UniProt P00533, C797S/L858R/T790M); assay: Inhibition of EGFR[T790M/C797S/L858R] biochemical enzymatic activity (HTRF); settings: EGFR T790M-C797S-L858R, 1 mM ATP, 1 h, room temperature, read-out: IC50 (nM) @T790M- C797S - L858R
T1 construct: purchased Carna Bio
Outline: (§1)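 For IC50 determination by four-parameter logistic fit, EDTA-quenched 1 h room-temperature reactions (1 mM ATP, 1 μM TK Substrate-biotin) were read by HTRF. The 665/615 nm emission ratio after 320 nm excitation served as the activity signal.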

EGFR L858R = target: T2, EGFR L858R (Homo sapiens, UniProt P00533, L858R); assay: Inhibition of EGFR L858R biochemical enzymatic activity (HTRF); settings: 1 mM ATP, 1 h, room temperature, read-out: IC50 (nM) @L858R
T2 construct: purchased Carna Bio
Outline: as §1

PC-9 = assay: Cell proliferation assay, PC-9 cells (CellTiter-Glo, 72 hours); format: cell-based; settings: PC9 cells, CellTiter-Glo, read-out: PC9 GI50
Outline: (§2)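 Cells are exposed to graded compound concentrations after overnight plating, using 500 PC-9 or 5000 Ba/F3 per well. Baseline-subtracted viability is compared with vehicle to give percent proliferation, then GI50.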

EGFR (d746-750 C797S) = target: T3, EGFR (d746-750 C797S) (Homo sapiens, UniProt P00533, C797S/DEL746-750); assay: Inhibition of EGFR (d746-750 C797S) biochemical enzymatic activity (HTRF); settings: EGFR Del19-C797S, 1 mM ATP, 1 h, room temperature, read-out: IC50 (nM) @Del19-C797S
T3 construct: purchased signalchem
Outline: as §1

EGFR Exon19Del = target: T4, EGFR Exon19Del (Homo sapiens, UniProt P00533, DEL746-750); assay: Inhibition of EGFR Exon19Del biochemical enzymatic activity (HTRF); settings: EGFR Del19, 1 mM ATP, 1 h, room temperature, read-out: IC50 @Del19
T4 construct: purchased Carna Bio
Outline: as §1

[1] = system: Ba/F3 cells expressing EGFR mutations; assay: Cell proliferation assay, Ba/F3 cells expressing EGFR mutations (CellTiter-Glo, 72 hours); format: cell-based; settings: CellTiter-Glo
Outline: as §2

EGFR (C797S L858R) = target: T5, EGFR (C797S L858R) (Homo sapiens, UniProt P00533, C797S/L858R); assay: Inhibition of EGFR (C797S L858R) biochemical enzymatic activity (HTRF); settings: EGFR L858-C797S, 1 mM ATP, 1 h, room temperature, read-out: IC50 (nM) @L858-C797S
T5 construct: purchased signalchem
Outline: as §1

EGFR Exon19Del/T790M = target: T6, EGFR Exon19Del/T790M (Homo sapiens, UniProt P00533, DEL746-750/T790M); assay: Inhibition of EGFR Exon19Del/T790M biochemical enzymatic activity (HTRF); settings: EGFR Del19-T790M, 1 mM ATP, 1 h, room temperature, read-out: IC50 (nM) @Del19-T790M
T6 construct: purchased Carna Bio
Outline: as §1

A-431 = assay: Cell proliferation GI50, A-431 cells (Table 6); format: cell-based
EGFR wild type = target: T7, EGFR wild type (Homo sapiens, UniProt P00533); assay: Inhibition of EGFR wild type biochemical enzymatic activity (HTRF); settings: EGFR WT, 1 mM ATP, 1 h, room temperature, read-out: IC50 (nM) @WT
T7 construct: purchased Carna Bio
Outline: as §1

EGFR L858R/T790M = target: T8, EGFR L858R/T790M (Homo sapiens, UniProt P00533, L858R/T790M); assay: Inhibition of EGFR L858R/T790M biochemical enzymatic activity (HTRF); settings: EGFR L858R-T790M, 1 mM ATP, 1 h, room temperature, read-out: IC50 (nM) @L858R-T790M
T8 construct: purchased Carna Bio
Outline: as §1

[2] = target: T9, EGFR[T790M/C797S/d746-750] (Homo sapiens, UniProt P00533, C797S/DEL746-750/T790M); assay: Inhibition of EGFR[T790M/C797S/d746-750] biochemical enzymatic activity (HTRF); settings: EGFR T790M-C797S-Del19, 1 mM ATP, 1 h, room temperature, read-out: IC50 (nM) @T790M - C797S - Del19
T9 construct: purchased Carna Bio
Outline: as §1

[3] = BaF3 cells, EGFR DEL19-C797S, read-out: DEL19-C797S/BaF3 GI50
[4] = BaF3 cells, EGFR DEL19-T790-C797S, read-out: DEL19-T790-C797S/BaF3 GI50
[5] = BaF3 cells, EGFR L858R, read-out: L858R/BaF3 GI50
[6] = BaF3 cells, EGFR L858R-C797S, read-out: L858R-C797S/BaF3 GI50
[7] = BaF3 cells, EGFR L858R-T790-C797S, read-out: L858R-T790-C797S/BaF3 GI50
[8] = BaF3 cells, EGFR L858R-T790M, read-out: L858R-T790M/BaF3 GI50
[9] = EGFR DEL19-T790M, read-out: DEL19-T790M GI50
[10] = Homo sapiens, A-431, A-431 cells
[11] = Mus musculus, BaF3, 72 h, BaF3 cells, EGFR DEL19-C797S, read-out: DEL19-C797S/BaF3 GI50
[12] = Mus musculus, BaF3, 72 h, BaF3 cells, EGFR DEL19-T790-C797S, read-out: DEL19-T790-C797S/BaF3 GI50
[13] = Mus musculus, BaF3, 72 h, BaF3 cells, EGFR L858R, read-out: L858R/BaF3 GI50
[14] = Mus musculus, BaF3, 72 h, BaF3 cells, EGFR L858R-C797S, read-out: L858R-C797S/BaF3 GI50
[15] = Mus musculus, BaF3, 72 h, BaF3 cells, EGFR L858R-T790-C797S, read-out: L858R-T790-C797S/BaF3 GI50
[16] = Mus musculus, BaF3, 72 h, BaF3 cells, EGFR L858R-T790M, read-out: L858R-T790M/BaF3 GI50
[17] = Mus musculus, BaF3, 72 h, EGFR DEL19-T790M, read-out: DEL19-T790M GI50

T4 sequence (P00533 with tags, fused parts or gaps DEL746-750 limits assumed): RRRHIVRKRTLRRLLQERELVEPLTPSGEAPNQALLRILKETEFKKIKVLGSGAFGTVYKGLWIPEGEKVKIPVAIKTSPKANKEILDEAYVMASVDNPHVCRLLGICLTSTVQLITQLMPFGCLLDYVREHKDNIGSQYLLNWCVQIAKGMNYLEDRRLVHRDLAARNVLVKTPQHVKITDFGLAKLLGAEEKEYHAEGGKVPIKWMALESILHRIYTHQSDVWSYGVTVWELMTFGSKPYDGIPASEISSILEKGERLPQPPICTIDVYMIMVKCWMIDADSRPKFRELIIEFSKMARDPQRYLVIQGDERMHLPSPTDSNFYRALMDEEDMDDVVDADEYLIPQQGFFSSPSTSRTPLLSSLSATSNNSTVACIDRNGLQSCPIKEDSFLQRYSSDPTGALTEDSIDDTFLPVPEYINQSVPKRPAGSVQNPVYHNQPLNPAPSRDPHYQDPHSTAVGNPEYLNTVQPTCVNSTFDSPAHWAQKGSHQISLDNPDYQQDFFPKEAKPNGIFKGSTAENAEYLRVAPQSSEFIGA
T1 sequence (P00533 25-1210 T790M/C797S/L858R): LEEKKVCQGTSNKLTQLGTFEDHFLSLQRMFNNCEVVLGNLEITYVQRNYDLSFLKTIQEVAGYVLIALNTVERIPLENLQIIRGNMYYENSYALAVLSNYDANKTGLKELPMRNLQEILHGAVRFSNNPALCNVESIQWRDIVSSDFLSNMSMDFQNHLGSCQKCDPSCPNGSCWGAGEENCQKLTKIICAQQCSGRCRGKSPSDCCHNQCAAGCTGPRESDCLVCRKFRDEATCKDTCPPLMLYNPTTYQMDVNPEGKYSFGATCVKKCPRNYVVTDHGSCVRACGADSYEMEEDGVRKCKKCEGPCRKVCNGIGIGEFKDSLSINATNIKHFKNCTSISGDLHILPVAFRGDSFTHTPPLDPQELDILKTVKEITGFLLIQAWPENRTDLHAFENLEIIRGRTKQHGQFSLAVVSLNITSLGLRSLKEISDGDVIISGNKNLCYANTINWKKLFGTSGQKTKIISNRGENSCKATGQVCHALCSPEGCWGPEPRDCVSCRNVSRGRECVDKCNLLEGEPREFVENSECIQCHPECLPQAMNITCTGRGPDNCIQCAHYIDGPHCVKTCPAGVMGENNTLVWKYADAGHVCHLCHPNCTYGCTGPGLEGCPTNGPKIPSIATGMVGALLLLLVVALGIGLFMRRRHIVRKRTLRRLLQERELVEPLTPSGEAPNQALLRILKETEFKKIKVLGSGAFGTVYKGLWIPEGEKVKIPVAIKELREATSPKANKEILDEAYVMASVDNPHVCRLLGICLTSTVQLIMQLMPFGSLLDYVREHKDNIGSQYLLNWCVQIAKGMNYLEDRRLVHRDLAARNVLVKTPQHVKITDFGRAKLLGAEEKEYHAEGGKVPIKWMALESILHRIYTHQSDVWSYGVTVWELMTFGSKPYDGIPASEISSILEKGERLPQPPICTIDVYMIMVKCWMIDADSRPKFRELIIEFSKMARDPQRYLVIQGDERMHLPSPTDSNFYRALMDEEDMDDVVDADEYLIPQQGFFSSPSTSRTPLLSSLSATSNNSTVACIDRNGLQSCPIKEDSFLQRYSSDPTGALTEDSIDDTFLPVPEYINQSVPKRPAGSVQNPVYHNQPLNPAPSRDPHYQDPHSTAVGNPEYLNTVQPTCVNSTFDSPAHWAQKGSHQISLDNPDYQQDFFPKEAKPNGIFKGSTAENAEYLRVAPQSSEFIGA
T9 sequence (P00533 with tags, fused parts or gaps DEL746-750/T790M/C797S limits assumed): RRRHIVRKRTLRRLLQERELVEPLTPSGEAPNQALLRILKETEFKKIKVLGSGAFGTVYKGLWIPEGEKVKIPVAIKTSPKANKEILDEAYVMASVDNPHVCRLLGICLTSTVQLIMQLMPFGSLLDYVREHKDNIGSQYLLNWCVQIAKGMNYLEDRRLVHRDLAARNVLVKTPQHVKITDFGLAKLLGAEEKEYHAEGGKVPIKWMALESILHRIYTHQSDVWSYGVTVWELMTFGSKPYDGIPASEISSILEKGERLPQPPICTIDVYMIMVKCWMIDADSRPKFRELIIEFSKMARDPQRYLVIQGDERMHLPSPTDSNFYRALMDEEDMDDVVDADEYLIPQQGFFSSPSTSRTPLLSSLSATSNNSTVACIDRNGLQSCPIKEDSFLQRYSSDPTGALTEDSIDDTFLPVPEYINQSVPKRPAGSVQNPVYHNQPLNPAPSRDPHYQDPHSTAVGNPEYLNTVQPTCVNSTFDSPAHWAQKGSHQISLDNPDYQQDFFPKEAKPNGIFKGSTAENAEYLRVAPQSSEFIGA
T3 sequence (P00533 with tags, fused parts or gaps DEL746-750/C797S limits assumed): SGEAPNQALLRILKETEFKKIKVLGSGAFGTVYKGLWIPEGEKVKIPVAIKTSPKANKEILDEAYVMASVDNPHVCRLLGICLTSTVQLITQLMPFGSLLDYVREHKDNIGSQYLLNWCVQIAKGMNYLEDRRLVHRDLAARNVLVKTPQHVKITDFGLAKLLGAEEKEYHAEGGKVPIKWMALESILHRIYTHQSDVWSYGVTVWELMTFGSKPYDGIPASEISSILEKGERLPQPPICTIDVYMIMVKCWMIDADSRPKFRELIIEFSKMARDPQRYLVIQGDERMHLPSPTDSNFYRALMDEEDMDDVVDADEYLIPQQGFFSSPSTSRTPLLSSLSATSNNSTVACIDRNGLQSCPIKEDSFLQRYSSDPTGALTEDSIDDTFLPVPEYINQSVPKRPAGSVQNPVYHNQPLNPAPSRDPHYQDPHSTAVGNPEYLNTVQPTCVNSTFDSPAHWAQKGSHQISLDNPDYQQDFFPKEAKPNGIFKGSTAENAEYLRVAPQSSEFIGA
T5 sequence (P00533 25-1210 C797S/L858R): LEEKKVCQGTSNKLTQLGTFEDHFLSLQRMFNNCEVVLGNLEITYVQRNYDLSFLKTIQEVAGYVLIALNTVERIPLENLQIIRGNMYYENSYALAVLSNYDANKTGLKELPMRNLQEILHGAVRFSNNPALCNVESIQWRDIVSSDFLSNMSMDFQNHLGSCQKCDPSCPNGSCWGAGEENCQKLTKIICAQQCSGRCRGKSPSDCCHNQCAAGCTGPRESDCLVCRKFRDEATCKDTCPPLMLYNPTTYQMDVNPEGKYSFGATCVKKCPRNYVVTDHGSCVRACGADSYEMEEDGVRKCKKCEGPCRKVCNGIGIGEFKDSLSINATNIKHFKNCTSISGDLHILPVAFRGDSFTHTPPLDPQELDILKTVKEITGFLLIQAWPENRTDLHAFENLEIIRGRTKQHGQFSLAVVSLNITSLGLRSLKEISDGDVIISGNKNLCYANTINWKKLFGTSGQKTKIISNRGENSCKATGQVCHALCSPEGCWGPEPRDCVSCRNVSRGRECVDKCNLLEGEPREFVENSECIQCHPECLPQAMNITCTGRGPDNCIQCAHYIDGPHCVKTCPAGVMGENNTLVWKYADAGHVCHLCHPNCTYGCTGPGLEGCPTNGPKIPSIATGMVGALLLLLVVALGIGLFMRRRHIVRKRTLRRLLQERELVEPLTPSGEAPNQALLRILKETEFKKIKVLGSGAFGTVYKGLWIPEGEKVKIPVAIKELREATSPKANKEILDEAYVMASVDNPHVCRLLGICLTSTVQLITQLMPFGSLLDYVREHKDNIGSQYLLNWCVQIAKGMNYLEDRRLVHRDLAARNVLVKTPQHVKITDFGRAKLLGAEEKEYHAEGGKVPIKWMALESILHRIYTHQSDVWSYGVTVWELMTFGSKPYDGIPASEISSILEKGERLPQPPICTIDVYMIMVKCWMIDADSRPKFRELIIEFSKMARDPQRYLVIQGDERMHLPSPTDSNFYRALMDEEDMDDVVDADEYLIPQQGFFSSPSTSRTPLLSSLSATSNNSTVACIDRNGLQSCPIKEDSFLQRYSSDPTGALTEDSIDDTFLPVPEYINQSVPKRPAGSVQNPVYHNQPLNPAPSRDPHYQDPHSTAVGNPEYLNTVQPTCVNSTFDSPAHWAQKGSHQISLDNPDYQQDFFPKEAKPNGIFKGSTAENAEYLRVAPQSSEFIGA
T6 sequence (P00533 with tags, fused parts or gaps DEL746-750/T790M limits assumed): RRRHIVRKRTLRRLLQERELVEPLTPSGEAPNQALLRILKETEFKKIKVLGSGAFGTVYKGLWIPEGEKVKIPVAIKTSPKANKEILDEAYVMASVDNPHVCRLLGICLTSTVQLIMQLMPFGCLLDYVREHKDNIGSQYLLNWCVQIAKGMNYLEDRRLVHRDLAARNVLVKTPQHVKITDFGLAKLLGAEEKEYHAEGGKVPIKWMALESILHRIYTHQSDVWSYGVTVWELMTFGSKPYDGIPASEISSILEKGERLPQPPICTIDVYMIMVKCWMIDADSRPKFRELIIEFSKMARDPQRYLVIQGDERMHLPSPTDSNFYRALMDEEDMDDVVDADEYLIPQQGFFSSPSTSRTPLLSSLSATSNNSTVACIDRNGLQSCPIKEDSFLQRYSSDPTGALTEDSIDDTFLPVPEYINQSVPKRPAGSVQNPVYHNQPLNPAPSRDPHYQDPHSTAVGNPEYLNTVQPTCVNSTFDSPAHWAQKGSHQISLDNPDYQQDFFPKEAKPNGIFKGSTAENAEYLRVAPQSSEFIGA

Structure (SMILES)	IC50 (EGFR[T790M/C797S/L858R]) [nM]	IC50 (EGFR L858R) [nM]	GI50 (PC-9) [nM]	IC50 (EGFR (d746-750 C797S)) [nM]	IC50 (EGFR Exon19Del) [nM]	GI50 [1, 3] [nM]	GI50 [1, 4] [nM]	GI50 [1, 5] [nM]	GI50 [1, 6] [nM]	GI50 [1, 7] [nM]	GI50 [1, 8] [nM]	GI50 [1, 9] [nM]	IC50 (EGFR (C797S L858R)) [nM]	IC50 (EGFR Exon19Del/T790M) [nM]	GI50 (A-431; [10]) [nM]	IC50 (EGFR wild type) [nM]	IC50 (EGFR L858R/T790M) [nM]	IC50 [2] [nM]	GI50 (PC-9; Homo sapiens, PC-9, 72 h) [nM]	GI50 (A-431; A-431 cells) [nM]	also measured
CN1CCC2(CN(c3ccc4nc5n(c4c3)C34CCC(CN(CCOc6c(cnn6C)-c6cc(cn(C)c6=O)C(=O)N5)C3)C4)C2)C(F)(F)C1 (single isomer, unassigned) [Example A91A]	> 5000	3720	1300	1650	740	74	146	324	303	366	884	231	> 5000	> 5000	1180	> 5000	> 5000	> 5000			
CCC1CCCOc2c(cnn2C)-c2cc(cn(C)c2=O)C(=O)Nc2nc3ccc(N4CCN(C)CC4)cc3n2C1 (single isomer, unassigned) [Example A16A, 11-Ethyl-5,26-dimethyl-16-(4-methylpiperazin-1-yl)-7-oxa-4,5,13,20,22,26-hexaazapentacyclo[22.3.1.0^{2,6}.0^{13,21}.0^{14,19}]octacosa-1(28),2(6),3,14,16,18,20,24-octaene-23,27-dione]	> 5000	> 5000		152	150	73	122	182	113	161	165	117	1350	127		> 5000	> 5000	115	139	95	
CN1CC2CC1CN2c1ccc2nc3n(c2c1)C12CCC(CN(CCOc4c(cnn4C)-c4cc(cn(C)c4=O)C(=O)N3)C1)C2 (single isomer, unassigned) [Example A105B]	1.5	7.3	13	1	1.6	0.76	3.5	7.9	3.8	7	15	4.9	3.8	2.2	354	110	1.8	1.7			
Cn1ncc2c1OCCN1CC3CCC(C3)(C1)n1c(nc3ccc(N4CCC(N5CC(F)C5)C4)cc31)NC(=O)c1cc-2c(=O)n(C)c1 (single isomer, unassigned) [Example A94B, 5-[3-(3-Fluoroazetidin-1-yl)pyrrolidin-1-yl]-15,21-dimethyl-23-oxa-2,9,11,15,20,21,26-heptaazaheptacyclo[24.4.1.1^{1,28}.1^{13,17}.0^{2,10}.0^{3,8}.0^{18,22}]tritriaconta-3,5,7,9,13,17(33),18(22),19-octaene-12,16-dione]	9.5	29	35	6.1	5.2		4.5	5.1		7.7	14	3.3	20	11		235	11	8.4		2880	
C[C@@H]1CCCOc2c(cnn2C)-c2cc(cn(C)c2=O)C(=O)Nc2nc3ccc(N4CCC(N5CCOCC5)C4)cc3n2C1 (stereo partly shown) [Example A28]	100	174		14	21								93	22	452	4140	137	21	38		GI50 [1, 11]: 2.4 nM; GI50 [1, 12]: 4.7 nM; GI50 [1, 13]: 4.5 nM; GI50 [1, 14]: 16 nM; GI50 [1, 15]: 3.6 nM; GI50 [1, 16]: 9.4 nM; GI50 [1, 17]: 6.7 nM
C[C@@H]1CCCOc2c(cnn2C)-c2cc(cn(C)c2=O)C(=O)Nc2nc3ccc(N4CC5(CN(C)CCO5)C4)cc3n2C1 [Example A47]	4.9	46		2.5	4.5								20	4.2	200	1130	9.5	4.2	7		GI50 [1, 11]: 1.7 nM; GI50 [1, 12]: 9.7 nM; GI50 [1, 13]: 4 nM; GI50 [1, 14]: 3.2 nM; GI50 [1, 15]: 3.4 nM; GI50 [1, 16]: 17 nM; GI50 [1, 17]: 12 nM
